Data published in patent US10105357B2, “Indication of antibiotic drugs for preparation of cancer inhibition pharmaceutical composition” (LAUNX BIOMEDICAL CO., LTD., priority 2014, dated 2018).
Read-outs that look alike come from different tables or passages of the source.

Assays:
Type in all cases: cell-based, human
[1] = test system: MKN-45 (Gastric Adenocarcinoma); assay: Cell viability analysis, gastric cancer MKN-45; details: for viability at 10 µM: Homo sapiens
[2] = test system: MCF7 (Mammary Gland, Adenocarcinoma); assay: Cell viability analysis, breast cancer MCF7; details: for viability at 10 µM: Homo sapiens
[3] = test system: LoVo (Colorectal Adenocarcinoma); assay: Cell viability analysis, colon cancer LoVo; details: for viability at 10 µM: Homo sapiens, LoVo
[4] = test system: AGS (Gastric Adenocarcinoma); assay: Cell viability analysis, gastric cancer AGS; details: for viability at 10 µM: Homo sapiens
[5] = test system: HeLa (Cervix Adenocarcinoma); assay: Cell viability analysis, cervical cancer HeLa; details: for viability at 10 µM: Homo sapiens, HeLa
[6] = test system: A549 (Lung Adenocarcinoma); assay: Cell viability analysis, lung cancer A549; details: for viability at 10 µM: Homo sapiens
[7] = test system: HL-60 (Acute Promyelocytic Leukemia); assay: Cell viability analysis, leukemia HL-60; details: for viability at 10 µM: Homo sapiens
[8] = test system: HepG2 (Hepatocellular Carcinoma); assay: Cell viability analysis, hepatic cancer HepG2; details: for viability at 10 µM: Homo sapiens
[9] = test system: A375 (Amelanotic Melanoma); assay: Cell viability analysis, skin cancer A375; details: for viability at 10 µM: Homo sapiens
[10] = test system: HI650 (Lung Adenocarcinoma); assay: Cell viability analysis, lung cancer HI650; details: for viability at 10 µM: Homo sapiens
[11] = test system: TSGH-8301 (Urinary Bladder Carcinoma); assay: Cell viability analysis, bladder cancer TSGH-8301; details: for viability at 10 µM: Homo sapiens
[12] = test system: PC3 (p53−) (Prostate Adenocarcinoma); assay: Cell viability analysis, prostate cancer PC3; details: 72 h; for viability at 10 µM: Homo sapiens, read-out: cell viability (survival rate), PC3, drug 10 μM, 72 hours, WST-1, OD450 nm
[13] = MKN-45, 72 h, read-out: cell viability (survival rate), MKN-45, drug 10 μM, 72 hours, WST-1, OD450 nm
[14] = MCF7, 72 h, read-out: cell viability (survival rate), MCF7, drug 10 μM, 72 hours, WST-1, OD450 nm
[15] = 72 h, read-out: cell viability (survival rate), LoVo, drug 10 μM, 72 hours, WST-1, OD450 nm
[16] = 72 h, read-out: cell viability (survival rate), AGS, drug 10 μM, 72 hours, WST-1, OD450 nm
[17] = 72 h, read-out: cell viability (survival rate), HeLa, drug 10 μM, 72 hours, WST-1, OD450 nm
[18] = A549, 72 h, read-out: cell viability (survival rate), A549, drug 10 μM, 72 hours, WST-1, OD450 nm
[19] = HL-60, 72 h, read-out: cell viability (survival rate), HL-60, drug 10 μM, 72 hours, WST-1, OD450 nm
[20] = HepG2, 72 h, read-out: cell viability (survival rate), HepG2, drug 10 μM, 72 hours, WST-1, OD450 nm
[21] = A-375, 72 h, read-out: cell viability (survival rate), A375, drug 10 μM, 72 hours, WST-1, OD450 nm
[22] = NCI-H1650, 72 h, read-out: cell viability (survival rate), H1650, drug 10 μM, 72 hours, WST-1, OD450 nm
[23] = 72 h, read-out: cell viability (survival rate), TSGH, drug 10 μM, 72 hours, WST-1, OD450 nm

Row | Compound | viability at 10 µM [1, 13] | viability at 10 µM [2, 14] | viability at 10 µM [3, 15] | viability at 10 µM [4, 16] | viability at 10 µM [5, 17] | viability at 10 µM [6, 18] | viability at 10 µM [7, 19] | viability at 10 µM [8, 20] | viability at 10 µM [9, 21] | viability at 10 µM [10, 22] | viability at 10 µM [11, 23] | viability at 10 µM [12] | also measured
1 | CN(C)[C@@H]1C(O)=C(C(N)=O)C(=O)[C@@]2(O)C(O)=C3C(=O)c4c(O)cccc4[C@@](C)(O)[C@H]3[C@H](O)[C@@H]12 [Oxytetracycline (Terramycin), Oxytetracycline] | – | – | – | – | – | – | – | – | – | – | – | – | cell viability (survival rate), MKN-45 ([1]; human, 72 h, 10 µM): 56.7; cell viability (survival rate), MCF7 ([2]; human, 72 h, 10 µM): 38.9; cell viability (survival rate), LoVo ([3]; human, 72 h, 10 µM): 86.6; cell viability (survival rate), AGS ([4]; human, 72 h, 10 µM): 61.9; cell viability (survival rate), HeLa ([5]; human, 72 h, 10 µM): 51.2; cell viability (survival rate), A549 ([6]; human, 72 h, 10 µM): 42.3; cell viability (survival rate), HL-60 ([7]; human, 72 h, 10 µM): 97.9; cell viability (survival rate), HepG2 ([8]; human, 72 h, 10 µM): 88.4; cell viability (survival rate), A375 ([9]; human, 72 h, 10 µM): 51.2; cell viability (survival rate), H1650 ([10]; human, 72 h, 10 µM): 70.1; cell viability (survival rate), TSGH ([11]; human, 72 h, 10 µM): 73.8; cell viability (survival rate), PC3 ([12]; human, 10 µM): 70.8
2 | CCCc1nc(C)c2c(=O)[nH]c(-c3cc(S(=O)(=O)N4CCN(CC)CC4)ccc3OCC)nn12 [Vardenafil (Vivanza), Vardenafil] | 68.2% | 117% | 106% | 86.5% | 61.7% | 96.5% | 127% | 81.8% | 73.2% | 67.2% | 57.8% | – | –
3 | C[C@H]1COc2c(N3CCN(C)CC3)c(F)cc3c(=O)c(C(=O)O)cn1c23 [Levofloxacin (Levaquin), Levofloxacin] | 44.5% | 43.9% | 62.6% | 51.6% | 50.8% | 36.7% | 93% | 88.4% | 39.3% | 64.9% | 41.8% | 29.6% | –
4 | C=CC1=C(C(=O)O)N2C(=O)[C@@H](NC(=O)/C(=N\O)c3csc(N)n3)[C@H]2SC1 [Cefdinir (Omnicef), Cefdinir] | 70.5% | 55.1% | 111% | 79.1% | 86.4% | 97% | 104% | 106% | 92.5% | 93.6% | 35.6% | 135% | –
5 | Fc1ccc([C@@H]2CCNC[C@H]2COc2ccc3c(c2)OCO3)cc1 [paroxetine] | – | – | – | – | – | – | – | – | – | – | – | – | viability at 10 µM ([11]; 72 h, read-out: The results of antibiotic drug inhibiting cancer cell lines (cell viability analysis), TSGH-8301, TSGH-8301, repeated experiment): 38.4%
6 | O=C([O-])[C@H](O)[C@@H](O)[C@H](O)[C@H](O)CO.[Na+] [Sodium Gluconate] | – | – | – | – | – | – | – | – | – | – | – | – | viability at 10 µM ([1]; MKN-45, drug 10 μM, 72 hours, WST-1, OD450 nm, read-out: cell viability (survival rate), MKN-45): 93%; viability at 10 µM ([2]; MCF7, drug 10 μM, 72 hours, WST-1, OD450 nm, read-out: cell viability (survival rate), MCF7): 94.7%; viability at 10 µM ([3]; drug 10 μM, 72 hours, WST-1, OD450 nm, read-out: cell viability (survival rate), LoVo): 100%; viability at 10 µM ([4]; drug 10 μM, 72 hours, WST-1, OD450 nm, read-out: cell viability (survival rate), AGS): 90.8%; viability at 10 µM ([5]; drug 10 μM, 72 hours, WST-1, OD450 nm, read-out: cell viability (survival rate), HeLa): 73%; viability at 10 µM ([6]; A549, drug 10 μM, 72 hours, WST-1, OD450 nm, read-out: cell viability (survival rate), A549): 91.9%; viability at 10 µM ([7]; HL-60, drug 10 μM, 72 hours, WST-1, OD450 nm, read-out: cell viability (survival rate), HL-60): 91.2%; viability at 10 µM ([8]; HepG2, drug 10 μM, 72 hours, WST-1, OD450 nm, read-out: cell viability (survival rate), HepG2): 95.3%; viability at 10 µM ([9]; A-375, drug 10 μM, 72 hours, WST-1, OD450 nm, read-out: cell viability (survival rate), A375): 116%; viability at 10 µM ([10]; NCI-H1650, drug 10 μM, 72 hours, WST-1, OD450 nm, read-out: cell viability (survival rate), H1650): 94.6%; viability at 10 µM ([11]; drug 10 μM, 72 hours, WST-1, OD450 nm, read-out: cell viability (survival rate), TSGH): 97.4%
